For 19 molecules, GI50 results are on record in patent US20240246940A1, “HETEROARYL DERIVATIVE COMPOUND AND USE THEREOF” (VORONOI INC., priority 2021, published 2024).

The subject of assay [1] is SK-BR-3 cells (HER2 overexpressing cell line). The assay is described as follows: SK-BR-3 cell proliferation inhibitory activity (CellTiter-Glo, 120 hours). The format is cell-based. The following applies: Homo sapiens. The method, boiled down:
(§1)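 Luminescent viability read-out, growth % vs control → GI50, n=3. Seeding: SK-BR-3/BT-474 5000 cells, 48 h pre-plating; N-87 5000, 24 h; HaCaT 3000, 24 h. Dose ranges: 0.2 nM–10 μM (SK-BR-3, BT-474; 3-fold), […]–5 μM (N-87; 5-fold), 0.8 nM–45 μM (HaCaT; 3-fold).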
A general note: In ATP-based viability assays light output follows the ATP content of the culture.

In assay [2] the test system is HaCaT cells (EGFR expressing cell line). In words: HaCaT cell proliferation inhibitory activity (CellTiter-Glo, 72 hours). The assay is classed as cell-based. The following applies: Homo sapiens. The method, boiled down: as §1

On to `C=CC(=O)N1CCC(Oc2cc3c(Nc4cc(-c5ccco5)ccc4OC4CCOCC4)ncnc3cc2OC)CC1` [Example 258, 1-(4-((4-((5-(furan-2-yl)-2-((tetrahydro-2H-pyran-4-yl)oxy)phenyl)amino)-7-methoxyquinazolin-6-yl)oxy)piperidin-1-yl)prop-2-en-1-one], for which the GI50 – broadly, the concentration giving 50% growth inhibition – in assay [1] was 150 to 1000 nM; in assay [2] it was at most 150 nM.

Regarding `C=CC(=O)N1CC(Oc2cc3c(Nc4cc(-c5cccc(Cl)c5F)ccc4OC)ncnc3cc2OC)C1` [Example 20, 1-(3-((4-((3′-chloro-2′-fluoro-4-methoxy-[1,1′-biphenyl]-3-yl)amino)-7-methoxy-quinazolin-6-yl)oxy)azetidin-1-yl)prop-2-en-1-one], the GI50 in assay [1] and in assay [2] was at most 150 nM in each case.

For `C=CC(=O)N1CCC(Oc2cc3c(Nc4cc(-c5ccccc5F)ccc4OC)ncnc3cc2OC)CC1` [Example 136, 1-(4-((4-((2′-fluoro-4-methoxy-[1,1′-biphenyl]-3-yl)amino)-7-methoxy-quinazolin-6-yl)oxy)piperidin-1-yl)prop-2-en-1-one], the GI50 in assay [1] and in assay [2] was at most 150 nM in each case.

Regarding `C=CC(=O)N1CCC(Oc2cc3c(Nc4cc(-c5ccco5)ccc4OC)ncnc3cc2OC)C(F)(F)C1` (centres unmarked) [Example 111, 1-(3,3-difluoro-4-((4-((5-(furan-2-yl)-2-methoxyphenyl)amino)-7-methoxy-quinazolin-6-yl)oxy)piperidin-1-yl)prop-2-en-1-one], the concentration for 50% growth inhibition (GI50) in assay [1] and in assay [2] was at most 150 nM each time.

Consider `C=CC(=O)N1CC(Oc2cc3c(Nc4cc(-c5ccco5)ccc4OC4CCN(C)C4)ncnc3cc2OC)C1` (centres unmarked) [Example 241, 1-(3-((4-((5-(furan-2-yl)-2-((1-methylpyrrolidin-3-yl)oxy)phenyl)amino)-7-methoxyquinazolin-6-yl)oxy)azetidin-1-yl)prop-2en-1-one], for which the GI50 in assay [1] and in assay [2] was at most 150 nM throughout.

With `C=CC(=O)N1CC(Oc2cc3c(Nc4cc(-c5ccc(C#N)cc5)ccc4OC)ncnc3cc2OC)C1` [Example 26, 3′-((6-((1-acryloylazetidin-3-yl)oxy)-7-methoxy-quinazolin-4-yl)amino)-4′-methoxy-[1,1′-biphenyl]-4-carbonitrile], the GI50 in assay [1] and in assay [2] was at most 150 nM each time.

As to `C=CC(=O)N1CC(Oc2cc3c(Nc4cc(-c5ccc6ncnn6c5)ccc4OC)ncnc3cc2OC)C1` [Example 31, 1-(3-((4-((5-([1,2,4]triazolo [1,5-a]pyridin-6-yl)-2-methoxyphenyl)amino)-7-methoxy-quinazolin-6-yl)oxy)azetidin-1-yl)prop-2-en-1-one], the GI50 was 150 to 1000 nM in assay [1] and above 1000 nM in assay [2].

For the molecule `C=CC(=O)N1CCC(Oc2cc3c(Nc4cc(-c5cccc(C#N)c5F)ccc4OC)ncnc3cc2OC)CC1` [Example 134, 3′-((6-((1-acryloyl-piperidin-4-yl)oxy)-7-methoxy-quinazolin-4-yl)amino)-2-fluoro-4′-methoxy-[1,1′-biphenyl]-3-carbonitrile], the 50% growth inhibitory concentration (GI50) in assay [1] and in assay [2] was 150 to 1000 nM in each case.

As to `C=CC(=O)N1CCC(Oc2cc3c(Nc4cc(-c5cccc(Cl)c5F)ccc4OC)ncnc3cc2OC)CC1` [Example 135, 1-(4-((4-((3′-chloro-2′-fluoro-4-methoxy-[1,1′-biphenyl]-3-yl)amino)-7-methoxy-quinazolin-6-yl)oxy)piperidin-1-yl)prop-2-en-1-one], the GI50 in assay [1] and in assay [2] was 150 to 1000 nM in each case.

In the case of `C=CC(=O)N1CCC(Oc2cc3c(Nc4cc(-c5ccco5)ncc4OC)ncnc3cc2OC)CC1` [Example 105, 1-(4-((4-((2-(furan-2-yl)-5-methoxypyridin-4-yl)amino)-7-methoxy-quinazolin-6-yl)oxy)piperidin-1-yl)prop-2-en-1-one], the 50% growth inhibitory concentration (GI50) in assay [1] and in assay [2] was at most 150 nM throughout.

On to `C=CC(=O)N1CCC(Oc2cc3c(Nc4cc(-c5ccco5)ccc4OC)ncnc3cc2OCC)CC1` [Example 238, 1-(4-((7-ethoxy-4-((5-(furan-2-yl)-2-methoxyphenyl)amino)quinazolin-6-yl)oxy)piperidin-1-yl)prop-2-en-1-one], for which the GI50 in assay [1] and in assay [2] was at most 150 nM each time.

In the case of `C=CC(=O)N1CC(Oc2cc3c(Nc4cc(-c5ccc(F)cc5C)ccc4OC)ncnc3cc2OC)C1` [Example 25, 1-(3-((4-((4'-fluoro-4-methoxy-2′-methyl-[1,1′-biphenyl]-3-yl)amino)-7-methoxy-quinazolin-6-yl)oxy)azetidin-1-yl)prop-2-en-1-one], the GI50 in assay [1] and in assay [2] was at most 150 nM throughout.

On to `C=CC(=O)N1CCC(Oc2cc3c(Nc4cc(-c5cccs5)ccc4OC)ncnc3cc2OC)C(F)C1` (centres unmarked) [Example 144, 1-(3-fluoro-4-((7-methoxy-4-((2-methoxy-5-(thiophen-2-yl)phenyl)amino)quinazolin-6-yl)oxy)piperidin-1-yl)prop-2-en-1-one], for which the GI50 in assay [1] and in assay [2] was at most 150 nM in each case.

As for `C=CC(=O)N1CCCC(Oc2cc3c(Nc4cc(-c5ccco5)ccc4OC)ncnc3cc2OC)C1` (centres unmarked) [Example 162, 1-(3-((4-((5-(furan-2-yl)-2-methoxyphenyl)amino)-7-methoxy-quinazolin-6-yl)oxy)piperidin-1-yl)prop-2-en-1-one], the figures for the GI50 in assay [1] and in assay [2] were above 1000 nM and 150 to 1000 nM, respectively.

For `C=CC(=O)N1CC(Oc2cc3c(Nc4cc(-c5ccc(F)cc5F)ccc4OC)ncnc3cc2OC)C1` [Example 13, 1-(3-((4-((2′,4′-difluoro-4-methoxy-[1,1′-biphenyl]-3-yl)amino)-7-methoxy-quinazolin-6-yl)oxy)azetidin-1-yl)prop-2-en-1-one], the GI50 in assay [1] and in assay [2] was at most 150 nM in each case.

With `C=CC(=O)N1CC(Oc2cc3c(Nc4cc(-c5cc(F)ccc5F)ccc4OC)ncnc3cc2OC)C1` [Example 10, 1-(3-((4-((2′,5′-difluoro-4-methoxy-[1,1′-biphenyl]-3-yl)amino)-7-methoxy-quinazolin-6-yl)oxy)azetidin-1-yl)prop-2-en-1-one], the GI50 in assay [1] and in assay [2] was at most 150 nM in each case.

As to `C=CC(=O)N1CCC(Oc2cc3c(Nc4cc(-c5cc(F)cnc5F)ccc4OC)ncnc3cc2OC)CC1` [Example 145, 1-(4-((4-((5-(2,5-difluoropyridin-3-yl)-2-methoxyphenyl)amino)-7-methoxy-quinazolin-6-yl)oxy)piperidin-1-yl)prop-2-en-1-one], the GI50 in assay [1] and in assay [2] was at most 150 nM in each case.

As to `C=CC(=O)N1CCC(Oc2cc3c(Nc4cc(-c5cccc(N)c5)ccc4OC)ncnc3cc2OC)CC1` [Example 180, 1-(4-((4-((3′-amino-4-methoxy-[1,1′-biphenyl]-3-yl)amino)-7-methoxy-quinazolin-6-yl)oxy)piperidin-1-yl)prop-2-en-1-one], the GI50 in assay [1] is 150 to 1000 nM; in assay [2], above 1000 nM.

On to `C=CC(=O)N1CC[C@H](Oc2cc3c(Nc4cc(-c5ccco5)ccc4OC)ncnc3cc2OC)C1` [Example 132, (S)-1-(3-((4-((5-(furan-2-yl)-2-methoxyphenyl)amino)-7-methoxy-quinazolin-6-yl)oxy)pyrrolidin-1-yl)prop-2-en-1-one], for which the GI50 in assay [1] was above 1000 nM; in assay [2], 150 to 1000 nM.
